# Laboratory results: patent publication US6316500A, “Aliphatically unsaturated hydroxy benzoates and preservative compositions thereof” (ISP Investments Inc., priority 1999, dated 2001)
# Key:
# A. niger 16404 = assay: Activity test: preservative challenge test in emulsion, A. niger 16404; type: cell-based; conditions: for number of colonies per milliliter, 28 days: reinoculated at 21 days
# Protocol: (§1) The emulsion was prepared by separately mixing components in phase A and phase B at 75-80° C. for 15 minutes. The phases were then combined and mixed for another 10 minutes and cooled to 45° C. with stirring. Preservative was then added followed by citric acid to adjust pH to from abut 6.5 to 7.5. Stirring of the resulting mixture was continued until a temperature of 30° C. was reached. The activity tests were carried out using the following microorganisms: A. niger, B. cepacia, C. albicans, E. coli, P. aeruginosa and S. aureus. 50 g aliquots of the test emulsion containing various amounts of the preservative admixture as reported in Tables I-V were inoculated with approximately 10^7 -10^8 of the test organisms. The test samples then were stirred to disperse the challenge inoculum. The samples were incubated and assayed at 48 hours, 7, 14, 21 and 28 days. The assays were performed on 1 g, of the test sample by serially diluting 10^3 to 10^6 of the original concentration. The plating medium for bacteria was Letheen agar and for fungi it was low pH Mycophil agar with Tween 20. Each plated sample was incubated for 48 hours at 37° C. for bacteria, 5 days at 25° C. for mold and 3 days at 25° C. for fungi. After incubation, readings of the number of colonies per milliliter (cfu/ml) were made results were determined, as reported in associated Tables IA-VA. At 21 days the test product was reinoculated with half of the original inoculum.
# B. cepacia 25416 = assay: Activity test: preservative challenge test in emulsion, B. cepacia 25416; type: cell-based; conditions: for number of colonies per milliliter, 28 days: reinoculated at 21 days
# Protocol: as §1
# C. albicans 10231 = assay: Activity test: preservative challenge test in emulsion, C. albicans 10231; type: cell-based; conditions: for number of colonies per milliliter, 28 days: reinoculated at 21 days
# Protocol: as §1
# E. coli 8739 = assay: Activity test: preservative challenge test in emulsion, E. coli 8739; type: cell-based; conditions: for number of colonies per milliliter, 28 days: reinoculated at 21 days
# Protocol: as §1
# P. aeruginosa 9027 = assay: Activity test: preservative challenge test in emulsion, P. aeruginosa 9027; type: cell-based; conditions: for number of colonies per milliliter, 28 days: reinoculated at 21 days
# Protocol: as §1
# S. aureus 6538 = assay: Activity test: preservative challenge test in emulsion, S. aureus 6538; type: cell-based; conditions: for number of colonies per milliliter, 28 days: reinoculated at 21 days
# Protocol: as §1
# [1] = about 10 ppm, beer preservative; cited from earlier work
# [2] = Partition coefficients (log of oil/water solubility)
# Source text: A greater water partitioning is indicated by a low log value.
smiles,measurement,setting,value
C#CCOC(=O)c1ccc(O)c(Cl)c1 [Propargyl 3-Chloro-4-Hydroxybenzoate],"number of colonies per milliliter, 48 hr",A. niger 16404; 0.5% preservative in emulsion,10000 cfu/ml
same,"number of colonies per milliliter, 7 days",A. niger 16404; 0.5% preservative in emulsion,< 10 cfu/ml
same,"number of colonies per milliliter, 14 days",A. niger 16404; 0.5% preservative in emulsion,< 10 cfu/ml
same,"number of colonies per milliliter, 21 days",A. niger 16404; 0.5% preservative in emulsion,< 10 cfu/ml
same,"number of colonies per milliliter, 28 days",A. niger 16404; 0.5% preservative in emulsion,< 10 cfu/ml
same,"number of colonies per milliliter, 48 hr",B. cepacia 25416; 0.5% preservative in emulsion,> 10^6 cfu/ml
same,"number of colonies per milliliter, 7 days",B. cepacia 25416; 0.5% preservative in emulsion,< 10^6 cfu/ml
same,"number of colonies per milliliter, 14 days",B. cepacia 25416; 0.5% preservative in emulsion,< 10^6 cfu/ml
same,"number of colonies per milliliter, 21 days",B. cepacia 25416; 0.5% preservative in emulsion,< 10^6 cfu/ml
same,"number of colonies per milliliter, 28 days",B. cepacia 25416; 0.5% preservative in emulsion,< 10^6 cfu/ml
same,"number of colonies per milliliter, 48 hr",C. albicans 10231; 0.5% preservative in emulsion,280000 cfu/ml
same,"number of colonies per milliliter, 7 days",C. albicans 10231; 0.5% preservative in emulsion,370 cfu/ml
same,"number of colonies per milliliter, 14 days",C. albicans 10231; 0.5% preservative in emulsion,< 10 cfu/ml
same,"number of colonies per milliliter, 21 days",C. albicans 10231; 0.5% preservative in emulsion,< 10 cfu/ml
same,"number of colonies per milliliter, 28 days",C. albicans 10231; 0.5% preservative in emulsion,< 10 cfu/ml
same,"number of colonies per milliliter, 48 hr",E. coli 8739; 0.5% preservative in emulsion,30 cfu/ml
same,"number of colonies per milliliter, 7 days",E. coli 8739; 0.5% preservative in emulsion,< 10 cfu/ml
same,"number of colonies per milliliter, 14 days",E. coli 8739; 0.5% preservative in emulsion,< 10 cfu/ml
same,"number of colonies per milliliter, 21 days",E. coli 8739; 0.5% preservative in emulsion,< 10 cfu/ml
same,"number of colonies per milliliter, 28 days",E. coli 8739; 0.5% preservative in emulsion,< 10 cfu/ml
same,"number of colonies per milliliter, 48 hr",P. aeruginosa 9027; 0.5% preservative in emulsion,< 10 cfu/ml
same,"number of colonies per milliliter, 7 days",P. aeruginosa 9027; 0.5% preservative in emulsion,< 10 cfu/ml
same,"number of colonies per milliliter, 14 days",P. aeruginosa 9027; 0.5% preservative in emulsion,80 cfu/ml
same,"number of colonies per milliliter, 21 days",P. aeruginosa 9027; 0.5% preservative in emulsion,< 10 cfu/ml
same,"number of colonies per milliliter, 28 days",P. aeruginosa 9027; 0.5% preservative in emulsion,< 10 cfu/ml
same,"number of colonies per milliliter, 48 hr",S. aureus 6538; 0.5% preservative in emulsion,9600 cfu/ml
same,"number of colonies per milliliter, 7 days",S. aureus 6538; 0.5% preservative in emulsion,< 10 cfu/ml
same,"number of colonies per milliliter, 14 days",S. aureus 6538; 0.5% preservative in emulsion,< 10 cfu/ml
same,"number of colonies per milliliter, 21 days",S. aureus 6538; 0.5% preservative in emulsion,< 10 cfu/ml
same,"number of colonies per milliliter, 28 days",S. aureus 6538; 0.5% preservative in emulsion,< 10 cfu/ml
CCCCCCCOC(=O)c1ccc(O)cc1 [heptyl p-hydroxybenzoate],solubility in beer,[1],limited solubility in beer so that the beer becomes turbid at about 0 °C
"C#CCOC(=O)c1ccc(O)cc1O [Propargyl 2,4-Dihydroxybenzoate]","number of colonies per milliliter, 48 hr",A. niger 16404; 0.2% preservative in emulsion,3500 cfu/ml
same,"number of colonies per milliliter, 7 days",A. niger 16404; 0.2% preservative in emulsion,< 10 cfu/ml
same,"number of colonies per milliliter, 14 days",A. niger 16404; 0.2% preservative in emulsion,< 10 cfu/ml
same,"number of colonies per milliliter, 21 days",A. niger 16404; 0.2% preservative in emulsion,< 10 cfu/ml
same,"number of colonies per milliliter, 28 days",A. niger 16404; 0.2% preservative in emulsion,< 10 cfu/ml
same,"number of colonies per milliliter, 48 hr",B. cepacia 25416; 0.2% preservative in emulsion,< 10 cfu/ml
same,"number of colonies per milliliter, 7 days",B. cepacia 25416; 0.2% preservative in emulsion,< 10 cfu/ml
same,"number of colonies per milliliter, 14 days",B. cepacia 25416; 0.2% preservative in emulsion,< 10 cfu/ml
same,"number of colonies per milliliter, 21 days",B. cepacia 25416; 0.2% preservative in emulsion,< 10 cfu/ml
same,"number of colonies per milliliter, 28 days",B. cepacia 25416; 0.2% preservative in emulsion,< 10 cfu/ml
same,"number of colonies per milliliter, 48 hr",C. albicans 10231; 0.2% preservative in emulsion,540 cfu/ml
same,"number of colonies per milliliter, 7 days",C. albicans 10231; 0.2% preservative in emulsion,< 10 cfu/ml
same,"number of colonies per milliliter, 14 days",C. albicans 10231; 0.2% preservative in emulsion,< 10 cfu/ml
same,"number of colonies per milliliter, 21 days",C. albicans 10231; 0.2% preservative in emulsion,< 10 cfu/ml
same,"number of colonies per milliliter, 28 days",C. albicans 10231; 0.2% preservative in emulsion,< 10 cfu/ml
same,"number of colonies per milliliter, 48 hr",E. coli 8739; 0.2% preservative in emulsion,< 10 cfu/ml
same,"number of colonies per milliliter, 7 days",E. coli 8739; 0.2% preservative in emulsion,< 10 cfu/ml
same,"number of colonies per milliliter, 14 days",E. coli 8739; 0.2% preservative in emulsion,< 10 cfu/ml
same,"number of colonies per milliliter, 21 days",E. coli 8739; 0.2% preservative in emulsion,< 10 cfu/ml
same,"number of colonies per milliliter, 28 days",E. coli 8739; 0.2% preservative in emulsion,< 10 cfu/ml
same,"number of colonies per milliliter, 48 hr",P. aeruginosa 9027; 0.2% preservative in emulsion,< 10 cfu/ml
same,"number of colonies per milliliter, 7 days",P. aeruginosa 9027; 0.2% preservative in emulsion,< 10 cfu/ml
same,"number of colonies per milliliter, 14 days",P. aeruginosa 9027; 0.2% preservative in emulsion,< 10 cfu/ml
same,"number of colonies per milliliter, 21 days",P. aeruginosa 9027; 0.2% preservative in emulsion,< 10 cfu/ml
same,"number of colonies per milliliter, 28 days",P. aeruginosa 9027; 0.2% preservative in emulsion,< 10 cfu/ml
same,"number of colonies per milliliter, 48 hr",S. aureus 6538; 0.2% preservative in emulsion,< 10 cfu/ml
same,"number of colonies per milliliter, 7 days",S. aureus 6538; 0.2% preservative in emulsion,< 10 cfu/ml
same,"number of colonies per milliliter, 14 days",S. aureus 6538; 0.2% preservative in emulsion,< 10 cfu/ml
same,"number of colonies per milliliter, 21 days",S. aureus 6538; 0.2% preservative in emulsion,< 10 cfu/ml
same,"number of colonies per milliliter, 28 days",S. aureus 6538; 0.2% preservative in emulsion,< 10 cfu/ml
CCOC(=O)c1ccc(O)cc1 [Parahydroxy ethyl benzoate],Log P,[2],2.47
